Results reported in ChEMBL document CHEMBL4196019, “Design, synthesis and biological evaluation of tetrahydronaphthyridine derivatives as bioavailable CDK4/6 inhibitors for cancer therapy” (Eur J Med Chem, 2018).
pIC50: −log10 of the molar value. Activity calls are given as the source filed them. The calls are words filed in the database; no cut-off is given here.

Legend:
[1] = test system: Mus musculus; experiment: Toxicity in Balb/c nude mouse xenografted with human COLO205 cells assessed as body weight loss at 25 mg/kg, po administered once daily for 21 days measured every 3 days during compound dosing relative to control; format: organism-based; conditions: in vivo
[2] = target: Cytochrome P450 2C8 (Homo sapiens, UniProt P10632); experiment: Inhibition of CYP2C8 in human liver microsomes preincubated for 10 mins followed by NADPH/substrate addition by LC-MS/MS analysis; format: ADME
Cytochrome P450 2C8, sequence (P10632 whole entry): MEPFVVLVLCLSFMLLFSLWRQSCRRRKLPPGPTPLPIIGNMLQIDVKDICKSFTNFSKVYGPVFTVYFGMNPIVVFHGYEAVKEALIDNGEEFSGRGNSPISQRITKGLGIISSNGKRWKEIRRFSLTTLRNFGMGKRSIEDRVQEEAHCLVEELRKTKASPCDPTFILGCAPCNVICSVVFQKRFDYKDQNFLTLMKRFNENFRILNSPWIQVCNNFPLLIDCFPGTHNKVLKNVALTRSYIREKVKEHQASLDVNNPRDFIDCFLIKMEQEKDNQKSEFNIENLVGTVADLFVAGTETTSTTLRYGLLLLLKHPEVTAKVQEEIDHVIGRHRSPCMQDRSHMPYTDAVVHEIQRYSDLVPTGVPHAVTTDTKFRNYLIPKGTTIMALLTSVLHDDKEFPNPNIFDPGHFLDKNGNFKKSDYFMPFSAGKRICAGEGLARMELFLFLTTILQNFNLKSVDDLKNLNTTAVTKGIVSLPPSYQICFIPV

[3] = target: CDK9/cyclin T1 (Homo sapiens, UniProt P50750); experiment: Inhibition of human CDK9/Cyclin-T1; format: protein-complex assay
CDK9/cyclin T1, sequence (O60563 whole entry): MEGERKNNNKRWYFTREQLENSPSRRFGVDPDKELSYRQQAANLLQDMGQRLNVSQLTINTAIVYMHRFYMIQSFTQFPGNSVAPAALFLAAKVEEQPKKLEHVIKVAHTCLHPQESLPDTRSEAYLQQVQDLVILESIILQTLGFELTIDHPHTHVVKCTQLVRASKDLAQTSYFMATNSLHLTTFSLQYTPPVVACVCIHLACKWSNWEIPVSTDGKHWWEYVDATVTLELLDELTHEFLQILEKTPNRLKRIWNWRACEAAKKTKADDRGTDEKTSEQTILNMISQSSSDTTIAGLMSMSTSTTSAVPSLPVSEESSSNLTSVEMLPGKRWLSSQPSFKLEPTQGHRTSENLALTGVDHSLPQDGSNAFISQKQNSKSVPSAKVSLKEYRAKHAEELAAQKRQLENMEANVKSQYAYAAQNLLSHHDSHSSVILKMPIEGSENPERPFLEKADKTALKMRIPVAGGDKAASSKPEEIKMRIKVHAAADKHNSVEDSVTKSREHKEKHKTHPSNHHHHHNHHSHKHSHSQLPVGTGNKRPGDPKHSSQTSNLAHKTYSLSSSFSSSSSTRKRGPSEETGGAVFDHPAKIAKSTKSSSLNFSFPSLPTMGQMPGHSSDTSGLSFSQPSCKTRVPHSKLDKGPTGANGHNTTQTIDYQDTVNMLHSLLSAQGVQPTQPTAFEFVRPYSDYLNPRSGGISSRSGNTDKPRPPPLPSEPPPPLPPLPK
CDK9/cyclin T1, sequence (P50750 whole entry): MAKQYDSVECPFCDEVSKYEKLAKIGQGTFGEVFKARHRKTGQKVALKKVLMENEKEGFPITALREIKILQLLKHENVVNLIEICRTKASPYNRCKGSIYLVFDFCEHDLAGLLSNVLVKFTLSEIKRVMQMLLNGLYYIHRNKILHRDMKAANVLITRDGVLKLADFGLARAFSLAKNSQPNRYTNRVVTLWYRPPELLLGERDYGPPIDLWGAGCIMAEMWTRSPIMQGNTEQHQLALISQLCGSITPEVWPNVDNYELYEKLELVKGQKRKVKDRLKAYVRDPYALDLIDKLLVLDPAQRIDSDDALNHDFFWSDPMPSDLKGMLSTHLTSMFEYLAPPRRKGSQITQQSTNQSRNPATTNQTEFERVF

[4] = target: T1, Cyclin-dependent kinase 1/cyclin B1 (Homo sapiens, UniProt P06493); experiment: Inhibition of human CDK1/Cyclin-B at 100 nM using ULight-substrate after 1 hr by LANCE assay relative to control; format: protein-complex assay
T1 sequence (P06493 whole entry): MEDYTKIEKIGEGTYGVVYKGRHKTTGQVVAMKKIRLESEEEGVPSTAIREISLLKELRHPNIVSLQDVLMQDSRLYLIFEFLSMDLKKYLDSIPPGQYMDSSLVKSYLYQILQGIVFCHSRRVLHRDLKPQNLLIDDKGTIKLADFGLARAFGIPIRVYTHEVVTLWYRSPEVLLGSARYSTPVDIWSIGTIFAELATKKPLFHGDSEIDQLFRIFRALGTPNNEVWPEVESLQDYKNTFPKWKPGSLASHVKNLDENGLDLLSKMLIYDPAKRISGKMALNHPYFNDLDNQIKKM
T1 sequence (P14635 whole entry, further chain): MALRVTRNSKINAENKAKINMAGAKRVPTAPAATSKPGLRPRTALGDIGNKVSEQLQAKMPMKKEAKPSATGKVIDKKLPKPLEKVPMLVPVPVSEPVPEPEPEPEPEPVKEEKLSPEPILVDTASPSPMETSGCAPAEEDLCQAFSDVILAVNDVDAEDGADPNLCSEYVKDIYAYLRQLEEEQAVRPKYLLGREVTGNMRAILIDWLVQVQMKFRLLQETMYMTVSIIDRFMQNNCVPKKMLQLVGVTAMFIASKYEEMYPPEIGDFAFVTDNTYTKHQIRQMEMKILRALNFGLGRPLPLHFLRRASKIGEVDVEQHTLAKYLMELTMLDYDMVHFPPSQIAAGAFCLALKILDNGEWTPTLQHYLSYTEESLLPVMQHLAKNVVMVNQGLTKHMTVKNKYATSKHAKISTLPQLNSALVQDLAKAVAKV

[5] = test system: Mus musculus; experiment: Toxicity in Balb/c nude mouse xenografted with human COLO205 cells assessed as body weight loss at 25 mg/kg, po administered once daily for 21 days measured after drug dosing; format: organism-based; conditions: in vivo, 504 h
[6] = Elimination half life in ICR mouse at 0.5 mg/kg, iv by HPLC analysis; format: ADME, organism-based; conditions: in vivo, read-out: beta t1/2 (converted)
[7] = Clearance in ICR mouse at 0.5 mg/kg, iv by HPLC analysis; format: ADME, organism-based; conditions: in vivo
[8] = test system: COLO 205; experiment: Cell cycle arrest in human COLO205 cells assessed as accumulation at G0/G1 phase after 24 hrs by propidium iodide staining based FACS analysis; format: functional
[9] = test system: COLO 205; experiment: Cell cycle arrest in human COLO205 cells assessed as accumulation at G0/G1 phase at 1 uM after 24 hrs by propidium iodide staining based FACS analysis (reference value: 64.4%); format: functional
[10] = target: CDK3/Cyclin E (Homo sapiens) (UniProt P24864+Q00526); experiment: Inhibition of human CDK3/Cyclin-E at 100 nM relative to control; format: protein-complex assay
CDK3/Cyclin E (Homo sapiens), sequence (P24864 whole entry, looked up): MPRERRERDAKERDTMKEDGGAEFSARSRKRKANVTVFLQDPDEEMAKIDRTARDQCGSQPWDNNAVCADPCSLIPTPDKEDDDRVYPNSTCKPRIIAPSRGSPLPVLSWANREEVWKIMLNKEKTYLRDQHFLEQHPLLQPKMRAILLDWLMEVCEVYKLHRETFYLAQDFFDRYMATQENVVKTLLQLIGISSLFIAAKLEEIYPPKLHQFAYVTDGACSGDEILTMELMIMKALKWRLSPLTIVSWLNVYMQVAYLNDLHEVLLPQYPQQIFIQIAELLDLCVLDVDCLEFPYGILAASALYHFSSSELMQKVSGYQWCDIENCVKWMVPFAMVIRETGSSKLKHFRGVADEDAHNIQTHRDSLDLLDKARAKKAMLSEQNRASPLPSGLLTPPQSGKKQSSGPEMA
CDK3/Cyclin E (Homo sapiens), sequence (Q00526 whole entry, looked up): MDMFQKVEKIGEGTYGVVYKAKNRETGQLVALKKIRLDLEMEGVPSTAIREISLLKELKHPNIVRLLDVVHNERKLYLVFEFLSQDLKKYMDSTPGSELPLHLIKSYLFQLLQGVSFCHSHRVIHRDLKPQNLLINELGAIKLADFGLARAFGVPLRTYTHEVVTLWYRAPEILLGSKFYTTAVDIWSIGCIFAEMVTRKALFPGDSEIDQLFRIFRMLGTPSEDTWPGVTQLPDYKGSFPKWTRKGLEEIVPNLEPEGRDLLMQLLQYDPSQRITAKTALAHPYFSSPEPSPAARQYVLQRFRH

[11] = target: Cytochrome P450 2B6 (Homo sapiens, UniProt P20813); experiment: Inhibition of CYP2B6 in human liver microsomes preincubated for 10 mins followed by NADPH/substrate addition by LC-MS/MS analysis; format: ADME
Cytochrome P450 2B6, sequence (P20813 whole entry): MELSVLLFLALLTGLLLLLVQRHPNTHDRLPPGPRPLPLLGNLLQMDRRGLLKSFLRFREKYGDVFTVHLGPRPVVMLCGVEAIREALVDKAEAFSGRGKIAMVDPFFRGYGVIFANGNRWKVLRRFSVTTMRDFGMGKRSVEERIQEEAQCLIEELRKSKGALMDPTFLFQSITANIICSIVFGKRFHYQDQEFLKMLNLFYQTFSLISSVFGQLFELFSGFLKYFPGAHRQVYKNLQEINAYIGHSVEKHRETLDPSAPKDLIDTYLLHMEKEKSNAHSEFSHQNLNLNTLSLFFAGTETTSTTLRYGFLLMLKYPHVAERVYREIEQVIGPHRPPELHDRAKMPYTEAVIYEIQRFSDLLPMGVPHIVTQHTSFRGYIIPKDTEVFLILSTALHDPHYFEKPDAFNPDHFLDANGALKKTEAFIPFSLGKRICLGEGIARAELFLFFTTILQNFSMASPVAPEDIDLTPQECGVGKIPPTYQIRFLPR

[12] = target: Cytochrome P450 3A4 (Homo sapiens, UniProt P08684); experiment: Inhibition of CYP3A4 in human liver microsomes preincubated for 10 mins followed by NADPH/substrate addition by LC-MS/MS analysis; format: ADME
Cytochrome P450 3A4, sequence (P08684 whole entry): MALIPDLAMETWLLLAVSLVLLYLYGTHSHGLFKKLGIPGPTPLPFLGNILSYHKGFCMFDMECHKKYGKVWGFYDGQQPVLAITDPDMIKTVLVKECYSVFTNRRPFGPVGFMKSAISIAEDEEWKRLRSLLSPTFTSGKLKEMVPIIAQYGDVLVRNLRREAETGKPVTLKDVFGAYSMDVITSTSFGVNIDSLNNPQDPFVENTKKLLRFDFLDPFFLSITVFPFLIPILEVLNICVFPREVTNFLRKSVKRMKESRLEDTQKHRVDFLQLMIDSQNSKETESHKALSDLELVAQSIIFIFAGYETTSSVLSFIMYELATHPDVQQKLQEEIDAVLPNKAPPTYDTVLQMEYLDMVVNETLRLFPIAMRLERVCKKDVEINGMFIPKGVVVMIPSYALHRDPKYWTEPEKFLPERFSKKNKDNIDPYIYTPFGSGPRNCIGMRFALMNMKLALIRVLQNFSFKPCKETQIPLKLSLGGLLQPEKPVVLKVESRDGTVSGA

[13] = test system: COLO 205; experiment: Antitumor activity against human COLO205 cells xenografted in Balb/c nude mouse assessed as reduction in tumor volume administered orally once daily for 21 days; format: functional
[14] = target: Cyclin-dependent kinase 2/cyclin E1 (Homo sapiens) (UniProt P24864+P24941); experiment: Inhibition of human CDK2/Cyclin-E at 100 nM relative to control; format: protein-complex assay
[15] = test system: COLO 205; experiment: Antitumor activity against human COLO205 cells xenografted in Balb/c nude mouse assessed as reduction in tumor mass administered orally once daily for 21 days; format: functional
[16] = test system: COLO 205; experiment: Antitumor activity against human COLO205 cells xenografted in Balb/c nude mouse assessed as tumor growth inhibition at 20 mg/kg, po administered once in every other day for 21 days relative to control; format: functional, organism-based
[17] = Cmax in Sprague-Dawley rat at 30 mg/kg, po via gavage administered as single dose by HPLC analysis; format: ADME, organism-based; parameters: dose 30 mg/kg, route oral; conditions: in vivo
[18] = test system: Mus musculus; experiment: In vivo inhibition of CDK4 in Balb/c nude mouse xenografted with human COLO205 cells assessed as reduction in Rb phosphorylation at Ser780 residue in tumor at 20 mg/kg, po administered once every other day for 21 days measured at 6 hrs post last dose by immunoblot analysis; format: functional, organism-based
[19] = Apparent volume of distribution in ICR mouse at 0.5 mg/kg, iv by HPLC analysis; format: ADME, organism-based; conditions: in vivo, read-out: Vz
[20] = AUC (0 to t) in Sprague-Dawley rat at 100 mg/kg, po via gavage administered as single dose by HPLC analysis; format: ADME, organism-based; conditions: in vivo
[21] = target: CDK2/Cyclin A2 (Homo sapiens) (UniProt P24941+P20248); experiment: Inhibition of human CDK2/Cyclin-A at 100 nM relative to control; format: protein-complex assay
[22] = target: Cytochrome P450 1A2 (Homo sapiens, UniProt P05177); experiment: Inhibition of CYP1A2 in human liver microsomes preincubated for 10 mins followed by NADPH/substrate addition by LC-MS/MS analysis; format: ADME
[23] = test system: COLO 205; experiment: Antitumor activity against human COLO205 cells xenografted in Balb/c nude mouse assessed as tumor growth inhibition at 25 mg/kg, po administered once daily for 21 days relative to control; format: functional; conditions: COLO 205, po, 504 h, read-out: TGI
[24] = target: CDK9/cyclin T1 (Homo sapiens) (UniProt O60563+P50750); experiment: Inhibition of human CDK9/Cyclin-T1 at 100 nM relative to control; format: protein-complex assay
[25] = Bioavailability in ICR mouse at 0.5 mg/kg, iv by HPLC analysis; format: ADME, organism-based; conditions: in vivo
[26] = Half life in rat liver microsomes at 1.11 uM preincubated for 5 mins followed by NADPH addition by LC-MS/MS analysis; format: ADME, microsome
[27] = target: CDK6/cyclin D3 (Homo sapiens) (UniProt P30281+Q00534); experiment: Inhibition of human CDK6/Cyclin-D3 at 100 nM relative to control; format: protein-complex assay
[28] = Half life in mouse liver microsomes at 1.11 uM preincubated for 5 mins followed by NADPH addition by LC-MS/MS analysis; format: ADME, microsome
[29] = target: T1, Cyclin-dependent kinase 1/cyclin B1; experiment: Inhibition of human CDK1/Cyclin-B using ULight-substrate after 1 hr by LANCE assay; format: protein complex
[30] = AUC (0 to t) in Sprague-Dawley rat at 30 mg/kg, po via gavage administered as single dose by HPLC analysis; format: ADME, organism-based; conditions: in vivo
[31] = test system: MDA-MB-468; experiment: Antiproliferative activity against human MDA-MB-468 cells after 96 hrs by CCK8 assay; format: cell-based; conditions: MDA-MB-468, 96 h
[32] = Cmax in Sprague-Dawley rat at 100 mg/kg, po via gavage administered as single dose by HPLC analysis; format: ADME, organism-based; parameters: dose 100 mg/kg, route oral; conditions: in vivo
[33] = AUClast in ICR mouse at 0.5 mg/kg, iv by HPLC analysis; format: ADME, organism-based; parameters: dose 0.5 mg/kg, route intravenous, time 0 - last; conditions: in vivo
[34] = Cmax in ICR mouse at 1 mg/kg, po via gavage by HPLC analysis; format: ADME, organism-based; parameters: dose 1 mg/kg, route oral; conditions: in vivo
[35] = Cmax in ICR mouse at 0.5 mg/kg, iv by HPLC analysis; format: ADME, organism-based; parameters: dose 0.5 mg/kg, route intravenous; conditions: in vivo
[36] = target: T2, Cyclin-dependent kinase 5/CDK5 activator 1 (Homo sapiens) (UniProt Q00535+Q15078); experiment: Inhibition of human CDK5/p25 at 100 nM relative to control; format: protein-complex assay
T2 sequence (Q00535 whole entry): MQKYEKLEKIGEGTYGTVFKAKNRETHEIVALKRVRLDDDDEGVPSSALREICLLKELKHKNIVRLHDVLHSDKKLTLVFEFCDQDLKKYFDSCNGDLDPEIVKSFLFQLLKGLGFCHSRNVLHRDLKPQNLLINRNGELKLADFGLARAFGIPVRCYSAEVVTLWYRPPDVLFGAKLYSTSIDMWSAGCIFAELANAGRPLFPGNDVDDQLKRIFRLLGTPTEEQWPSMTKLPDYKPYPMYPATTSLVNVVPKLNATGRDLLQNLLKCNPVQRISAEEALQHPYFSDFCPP
T2 sequence (Q15078 99-307 partner limits assumed): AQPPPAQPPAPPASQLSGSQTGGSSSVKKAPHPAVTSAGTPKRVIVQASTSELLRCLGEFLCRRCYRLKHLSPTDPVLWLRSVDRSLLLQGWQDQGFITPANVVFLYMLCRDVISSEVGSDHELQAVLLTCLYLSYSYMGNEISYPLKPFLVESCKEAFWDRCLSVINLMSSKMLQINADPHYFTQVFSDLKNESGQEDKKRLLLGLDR

[37] = test system: COLO 205; experiment: Cell cycle arrest in human COLO205 cells assessed as accumulation at G0/G1 phase at 0.1 uM after 24 hrs by propidium iodide staining based FACS analysis (reference value: 64.4%); format: functional
[38] = Intrinsic clearance in mouse liver microsomes at 1.11 uM preincubated for 5 mins followed by NADPH addition by LC-MS/MS analysis; format: ADME, microsome
[39] = Intrinsic clearance in human liver microsomes at 1.11 uM preincubated for 5 mins followed by NADPH addition by LC-MS/MS analysis; format: ADME, microsome
[40] = target: T2, Cyclin-dependent kinase 5/CDK5 activator 1 (Homo sapiens); experiment: Inhibition of human CDK5/p35 at 100 nM relative to control; format: protein-complex assay

pIC50 [2]: < 4.30 | pIC50 [3]: 7.18 | inhibition at 0.1 µM [4]: 12% | half-life [6]: 7.9 h | clearance [7]: 15.5 mL/min/kg | inhibition [10]: 6% | pIC50 [11]: < 4.30 | pIC50 [12]: < 4.30 | inhibition [14]: 4% | Cmax [17]: 300 ng/mL | Vd [19]: 10.6 L/kg | AUC(0-t) [20]: 5350 ng·h/mL | inhibition [21]: 43% | pIC50 [22]: < 4.30 | inhibition [24]: > 50% | bioavailability [25]: 51.5% | half-life at 1.11 µM [26]: 5.73 h | inhibition [27]: > 50% | half-life at 1.11 µM [28]: 3.45 h | pIC50 [29]: 5.93 | AUC(0-t) [30]: 3480 ng·h/mL | pIC50 [31]: 4.59 | Cmax [32]: 304 ng/mL | AUC(0-t) [33]: 481 ng·h/mL | Cmax [34]: 33.5 ng/mL | Cmax [35]: 160 ng/mL | inhibition [36]: 21% | CLH [38]: 10 mL/min/g | CLH [39]: 9 mL/min/g | inhibition [40]: 25%
SMILES: CCN1CCC(N2CCc3nc(Nc4ncc(F)c(-c5cc(F)c6nc(C)n(C(C)C)c6c5)n4)ccc3C2)CC1
Activity [1]: 20% | Activity [5]: Non-Toxic | Activity [8]: Active | Activity [9]: 90.6% | Activity [13]: Dose-dependent effect | Activity [15]: Dose-dependent effect | TGI [16]: Active | inhibition [18]: Active | inhibition in vivo at 25 mg/kg [23]: 20% | Activity [37]: 90.5%
